Source: patent US20100197614A1, “TREATMENT OF URINARY TRACT INFECTIONS WITH A MIXTURE OF SAPONIN AND AN ANTIBIOTIC” (priority 2007, published 2010)

Key:
[1] = system: wild-type E Coli bacteria isolated from UTI patients; experiment: Growth (absorption at 600 nm) and CFU survival of E Coli directly exposed to gentamicin in LB; type: cell-based, Escherichia coli
Procedure: Furthermore, a sample of each bacteria solution at each different gentamicin concentration was transferred to an agar plate in order to test if the bacteria could give any surviving colony forming units (CFU) on an agar plate. The agar plate incubated overnight at 37° C.
FIG. 3, lower panel, no E Coli bacteria could survive being exposed for 2 hours to concentrations of gentamicin higher than approximately 3.1 μg/ml.
Seven different wild-type E Coli bacteria were isolated from UTI patients and were cultured in Luria Broth (LB) medium under static conditions for 2 days. The method for culturing bacteria is familiar for any skilled person in this field of microbiology. The 2 days old bacteria were diluted 100 fold in fresh sterile LB and added different concentrations of gentamicin or no gentamicin (control). Gentamicin was used as representative antibiotic agent. The bacteria were then allowed to re-grow for 2 hours under optimal growth conditions (shaking and at 37° C.) before the actual concentrations of bacteria cell in the LB were measured by determination of the absorption at 600 nm. The absorption of light reflects the number of bacteria. The number of bacteria was expressed relatively to the control preparation without gentamicin. […] Furthermore, a sample of each bacteria solution at each different gentamicin concentration was transferred to an agar plate in order to test if the bacteria survived and could cause formation of colony forming units (CFU) on an agar plate. The agar plate incubated overnight at 37° C.

[2] = system: E Coli taken up by human urinary bladder cells (HTB-9); experiment: Infection of human bladder cells (HTB-9) with E Coli; surviving intracellular bacteria counted as CFU after gentamicin exposure; type: cell-based, Escherichia coli; conditions: HTB-9 infected 1 or 2 hours, then 100.0 μg/ml gentamicin for 2 hours
Procedure: Human bladder cells were cultured and thereafter infected with bacteria. In brief, human urinary bladder cells (HTB-9 from American tissue culture collection) were cultured in culture medium and CO2 incubator at 37° C. until the actual experiment took place. Culturing of human cells is familiar for any skilled person in this field of biology. Next, different concentrations of E Coli were added to the human bladder cells. The bladder cells and the bacteria were allowed to incubate for 1 or 2 hours together before most of the loosely bound and extracellular E Coli cells were removed by washing the bladder cells with PBS (the human bladder cells are attached to the bottom of the cell culture flask). The human bladder cells were exposed to 100.0 μg/ml gentamicin for 2 hours. Gentamicin cannot pass any membrane under normal conditions. As already shown in example 1, this gentamicin treatment kills all bacteria if the gentamicin can get access to the bacteria. Residual gentamicin and dead bacteria were removed again by washing the bladder cells with PBS. A final concentration of 0.1% triton x-100 in phosphate buffered saline was added to destroy all membrane structures of the human cells. […] The degree of expression of bacterial type 1 pili was correlated with the degree of bladder infection as measured by the method explained in example 2. […]

gentamicin
survival of test bacteria on direct exposure ([1]; 100.0 μg/ml gentamicin, 2 hours): could not survive
number of bacteria relative to control without gentamicin (absorption at 600 nm) ([1]; 2 hours re-growth with different concentrations of gentamicin): reduced at very low concentrations of gentamicin
gentamicin concentration above which no E Coli bacteria could survive (CFU on agar plate) ([1]; exposed for 2 hours, LB, 37° C., agar plate overnight): approximately 3.1 μg/ml
survival of bacteria taken up by bladder cells after antibiotic treatment (CFU) [2]: able to survive the antibiotic treatment
